Like-named read-outs stand apart in the source and are kept apart here.
Key:
[1] = tested on: JAK1/TYK2 pSTAT5 (Tyr694/699) in THP-1 cell line; assay: IFNa-stimulated JAK1/TYK2 pSTAT5 (Tyr694/699) inhibition cellular assay, AlphaLISA; format: cell-based; details: Homo sapiens, THP-1 cells, AlphaLISA (Assay B)
Method in brief: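 An eight-point 6-fold titration of compound (0.04–10000 nM final) is given to THP-1 cells for 1 h before 30 min of IFNa exposure. Phospho-STAT5 is read by AlphaLISA at 615 nm. IC50 values are derived by logistic regression with bottom set to 0 and Hill slope set to −1.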

[2] = biological target: T1, TYK2 JH2 (Homo sapiens, UniProt P29597); assay: TYK2 JH2 binding assay (KINOMEscan KdELECT competitive binding); details: TYK2 JH2 domain
T1 construct: purchased DiscoverX (KINOMEscan KdELECT service); host or cells: E. coli BL21-derived (T7 phage display) or HEK-293
Method in brief: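 Beads carrying a biotinylated ligand were mixed with tagged JH2 kinase and compound (11 points, 3-fold steps, 0.9% DMSO) and shaken 1 h at room temperature. After washing, kinase was released with 0.5 μM untagged ligand over 30 min and measured by qPCR to derive Kd.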

[3] = IFNa-stimulated, read-out: Cellular_THP1_IFNa-pSTATS_TYK2
[4] = DiscoverX KINOMEscan KdELECT (Assay A), read-out: Biochemical TYK2_DiscoverX_JH2_BND_Kd
[5] = IFNa-stimulated pSTAT5 (Tyr694/699), read-out: Cellular_THP1_IFNa-pSTATS_TYK2
[6] = KINOMEscan KdELECT (Assay A), read-out: Biochemical TYK2_DiscoverX_JH2_BND_Kd
[7] = IFNa-stimulated, read-out: Cellular THP1_IFNa-pSTATS_IC50
[8] = KINOMEscan KdELECT (Assay A), read-out: Biochemical TYK2_JH2_Kd

T1 sequence (P29597 589-875 limits assumed): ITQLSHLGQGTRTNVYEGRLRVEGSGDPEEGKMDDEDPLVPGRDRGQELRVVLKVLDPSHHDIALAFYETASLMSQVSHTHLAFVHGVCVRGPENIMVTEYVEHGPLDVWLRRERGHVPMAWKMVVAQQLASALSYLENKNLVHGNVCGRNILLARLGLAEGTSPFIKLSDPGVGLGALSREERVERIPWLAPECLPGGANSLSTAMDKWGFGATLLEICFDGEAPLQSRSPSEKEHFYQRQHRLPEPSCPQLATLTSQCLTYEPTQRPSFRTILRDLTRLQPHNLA

SMILES	IC50 [1, 3] [nM]	Kd [2, 4] [nM]	Kd [2, 6] [nM]	IC50 [1, 7] [nM]	Kd [2, 8] [nM]	further results
COc1ccc2oc(-c3cnc(NCC(F)F)c4cnc(NC(=O)C5CC5)cc34)nc2c1 [Example 370, N-(8-((2,2-difluoroethyl)amino)-5-(5-methoxybenzo[d]oxazol-2-yl)-2,7-naphthyridin-3-yl)cyclopropanecarboxamide]	≤ 500	≤ 100				
CCNc1ncc(-c2nc3ccc(C)cn3n2)c2cc(NC(=O)C3CC3)ncc12 [Example 517, N-(8-(ethylamino)-5-(6-methyl-[1,2,4]triazolo[1,5-a]pyridin-2-yl)-2,7-naphthyridin-3-yl)cyclopropanecarboxamide]	≤ 500	≤ 100				
CNc1ncc(-c2nc3c(Br)cccc3o2)c2cc(NC(=O)C3CC3)ncc12 [Example 272, N-(5-(4-bromobenzo[d]oxazol-2-yl)-8-(methylamino)-2,7-naphthyridin-3-yl)cyclopropanecarboxamide]	≤ 500	≤ 100				
CNc1ncc(-c2ccc(C(F)(F)F)cc2)c2cc(NC(=O)C3CC3)ncc12 [Example 109, N-(8-(methylamino)-5-(4-(trifluoromethyl)phenyl)-2,7-naphthyridin-3-yl)cyclopropanecarboxamide]				> 500	≤ 100	
CNC(=O)c1cnc(NC)c2cnc(NC(=O)C3CC3)cc12 [Example 124, 6-(cyclopropanecarboxamido)-N-methyl-1-(methylamino)-2,7-naphthyridine-4-carboxamide]				> 500	≤ 100	
CNc1ncc(-c2nc3c(OC)cccc3o2)c2cc(NC(=O)C3CC3)ncc12 [Example 180, N-(5-(4-methoxybenzo[d]oxazol-2-yl)-8-(methylamino)-2,7-naphthyridin-3-yl)cyclopropanecarboxamide]				≤ 500	≤ 100	
CNc1ncc(-c2nc3cccc(CCC#N)c3o2)c2cc(NC(=O)C3CC3)ncc12 [Example 270, N-(5-(7-(2-cyanoethyl)benzo[d]oxazol-2-yl)-8-(methylamino)-2,7-naphthyridin-3-yl)cyclopropanecarboxamide]	≤ 500	≤ 100				
CNc1ncc(C2=CCOC2)c2cc(NC(=O)C3CC3)ncc12 [Example 75, N-(5-(2,5-dihydrofuran-3-yl)-8-(methylamino)-2,7-naphthyridin-3-yl)cyclopropanecarboxamide]				> 500	≤ 100	
[2H]C([2H])([2H])Nc1ncc(/C=C/c2ccc(OCCC#N)cc2)c2cc(NC(=O)[C@H]3C[C@H]3C)ncc12 [Example 799, (1S,2R)—N-(5-((E)-4-(2-cyanoethoxy)styryl)-8-((methyl-d3)amino)-2,7-naphthyridin-3-yl)-2-methylcyclopropane-1-carboxamide]	≤ 500		≤ 100			
CNc1ncc(-c2ncccc2OC)c2cc(NC(C)=O)ncc12 [Example 89, N-(5-(3-methoxypyridin-2-yl)-8-(methylamino)-2,7-naphthyridin-3-yl)acetamide]				> 500	100 to 1000	
CNc1ncc(-c2nc3cc(N4CCS(=O)(=O)CC4)ccc3o2)c2cc(NC(=O)C3CC3)ncc12 [Example 303, N-(5-(5-(1,1-dioxidothiomorpholino)benzo[d]oxazol-2-yl)-8-(methylamino)-2,7-naphthyridin-3-yl)cyclopropanecarboxamide]	≤ 500	≤ 100				
CCc1nc(NC)c2cnc(NC(=O)C3CC3)cc2c1C#Cc1ccc(OC)cc1 [Example 780, N-(6-ethyl-5-((4-methoxyphenyl)ethynyl)-8-(methylamino)-2,7-naphthyridin-3-yl)cyclopropanecarboxamide]	> 500		≤ 100			
CNc1ncc(C2=CCOC2=O)c2cc(NC(=O)C3CC3)ncc12 [Example 85, N-(8-(methylamino)-5-(2-oxo-2,5-dihydrofuran-3-yl)-2,7-naphthyridin-3-yl)cyclopropanecarboxamide]				> 500	100 to 1000	
CNc1ncc(-c2nc3ccc(N4CCOCC4)cn3n2)c2cc(NC(=O)C3(C)CC3)ncc12 [Example 526, 1-methyl-N-(8-(methylamino)-5-(6-morpholino-[1,2,4]triazolo[1,5-a]pyridin-2-yl)-2,7-naphthyridin-3-yl)cycloproapne-1-carboxamide]	≤ 500	≤ 100				
CNc1ncc(-c2ccc(OC(F)F)cc2)c2cc(NC(=O)C3CC3)ncc12 [Example 112, N-(5-(4-(difluoromethoxy)phenyl)-8-(methylamino)-2,7-naphthyridin-3-yl)cyclopropanecarboxamide]				> 500	≤ 100	
CNc1ncc(/C=C/c2ccccc2)c2cc(NC(=O)C3CC3)ncc12 [Example 33, (E)-N-(8-(methylamino)-5-styryl-2,7-naphthyridin-3-yl)cyclopropanecarboxamide]				≤ 500	≤ 100	
CNc1ncc(C2=Cc3ccccc3CO2)c2cc(NC(=O)C3CC3)ncc12 [Example 850, N-(5-(1H-isochromen-3-yl)-8-(methylamino)-2,7-naphthyridin-3-yl)cyclopropanecarboxamide]	≤ 500		≤ 100			
CNc1ncc(-c2nc3cc(OC)ccc3o2)c2cc(Nc3ccccn3)ncc12 [Example 372, 4-(5-methoxybenzo[d]oxazol-2-yl)-N^1-methyl-N^6-(pyridin-2-yl)-2,7-naphthyridine-1,6-diamine]	≤ 500	≤ 100				
[2H]C([2H])([2H])Nc1ncc(-c2nc3cc(OC([2H])([2H])[2H])ccc3o2)c2cc(NC(=O)C3CC3)ncc12 [Example 365, N-(5-(5-(methoxy-d3)benzo[d]oxazol-2-yl)-8-((methyl-d3)amino)-2,7-naphthyridin-3-yl)cyclopropanecarboxamide]	≤ 500	≤ 100				

The next lines start with results.

IC50 [1, 3] [nM]	Kd [2, 4] [nM]	Kd [2, 6] [nM]	IC50 [1, 7] [nM]	Kd [2, 8] [nM]	SMILES	further results
		≤ 100			CNc1ncc(C#Cc2c(C)nn(C)c2C)c2cc(NC(=O)C3CC3)ncc12 [Example 1018, N-(8-(methylamino)-5-((1,3,5-trimethyl-1H-pyrazol-4-yl)ethynyl)-2,7-naphthyridin-3-yl)cyclopropanecarboxamide]	IC50 [1, 5]: ≤ 500 nM
≤ 500	≤ 100				CCOc1ccc2oc(-c3cnc(NC)c4cnc(NC(=O)C5CC5)cc34)nc2c1 [Example 246, N-(5-(5-ethoxybenzo[d]oxazol-2-yl)-8-(methylamino)-2,7-naphthyridin-3-yl)cyclopropanecarboxamide]	
≤ 500		≤ 100			CNc1ncc(C#Cc2ccc3nnn(C)c3c2)c2cc(NC(=O)C3CC3)nnc12 [Example 882, N-(5-((1-methyl-1H-benzo[d][1,2,3]triazol-6-yl)ethynyl)-8-(methylamino)pyrido[3,4-c]pyridazin-3-yl)cyclopropanecarboxamide]	
≤ 500		≤ 100			CNc1ncc(C#Cc2ccc(-c3cnn(C)n3)cc2)c2cc(NC(=O)C3CC3)ncc12 [Example 957, N-(5-((4-(2-methyl-2H-1,2,3-triazol-4-yl)phenyl)ethynyl)-8-(methylamino)-2,7-naphthyridin-3-yl)cyclopropanecarboxamide]	
≤ 500		≤ 100			CNc1ncc(C#Cc2cn(C)cn2)c2cc(NC(=O)C3CC3)ncc12 [Example 990, N-[8-(methylamino)-5-[2-(1-methylimidazol-4-yl)ethynyl]-2,7-naphthyridin-3-yl]cyclopropanecarboxamide]	
≤ 500		≤ 100			CNc1ncc(C#Cc2ccc(-n3ccccc3=O)cc2)c2cc(NC(=O)C3CC3)ncc12 [Example 671, N-(8-(methylamino)-5-((4-(2-oxopyridin-1(2H)-yl)phenyl)ethynyl)-2,7-naphthyridin-3-yl)cyclopropanecarboxamide]	
			> 500	≤ 100	CNc1ncc(-c2ccccc2Cl)c2cc(NC(=O)C3CC3)ncc12 [Example 15, N-(5-(2-chlorophenyl)-8-(methylamino)-2,7-naphthyridin-3-yl)cyclopropanecarboxamide]	
≤ 500	≤ 100				CNc1ncc(-c2nc3ncccc3o2)c2cc(NC(=O)C3CC3)ncc12 [Example 358, N-(8-(methylamino)-5-(oxazolo[4,5-b]pyridin-2-yl)-2,7-naphthyridin-3-yl)cyclopropanecarboxamide]	
			> 500	≤ 100	CCc1cnc(NC)c2cnc(NC(=O)C3CC3)cc12 [Example 72, N-(5-ethyl-8-(methylamino)-2,7-naphthyridin-3-yl)cyclopropanecarboxamide]	
		≤ 100			CNc1ncc(C#Cc2nccc3cc(C)sc23)c2cc(NC(=O)C3CC3)ncc12 [Example 1012, N-(8-(methylamino)-5-((2-methylthieno[2,3-c]pyridin-7-yl)ethynyl)-2,7-naphthyridin-3-yl)cyclopropanecarboxamide]	IC50 [1, 5]: ≤ 500 nM
≤ 500		≤ 100			CNc1ncc(C#Cc2cc3c(cn2)nnn3C)c2cc(NC(=O)C3CC3)ncc12 [Example 689, N-(5-((1-methyl-1H-[1,2,3]triazolo[4,5-c]pyridin-6-yl)ethynyl)-8-(methylamino)-2,7-naphthyridin-3-yl)cyclopropanecarboxamide]	
